Earlier results, collected in patent US12121516B2, “Pharmaceutical composition comprising selexipag” (ACTELION PHARMACEUTICALS LTD, priority 2017, dated 2024).

Key:
healthy subjects = conditions: administered orally or by i.v. infusion
[1] = test system: patients with pulmonary arterial hypertension; conditions: phase III, versus placebo

**Q.** Which tolerability (healthy subjects) does the source give for `CC(C)N(CCCCOCC(=O)NS(C)(=O)=O)c1cnc(-c2ccccc2)c(-c2ccccc2)n1` [selexipag, 2-{4-[N-(5,6-diphenylpyrazin-2-yl)-N-isopropylamino]butyloxy}-N-(methylsulfonyl)acetamide] here?
**A.** generally well tolerated

**Q.** What about the “risk of the primary composite end point of death or a complication related to pulmonary arterial hypertension” value [1] of the same compound?
**A.** significantly lower
